Structures can show the parent of a compound that is named as a salt. Where two headings read alike, the source gives them in different places.
Key:
TNF production [1] = experiment: Inhibition of LPS-stimulated TNF production in the mouse macrophage line RAW 264.7 (ELISA); type: cell-based; settings: for activity at 10 µM: RAW264.7, 6 h, read-out: TNF LEVEL % Control (LPS alone), Ave. ± S.D.; for effectiveness against LPS-stimulated TNF production (in words): drug 10 µM
Description: Cells were passaged at confluence by scraping and routinely plated at a density of 0.25 x 10^6 and 0.5 x 10^6 cells per T-75 and T-150, respectively.
Typically, RAW cells were plated at 0.25 x 10^6 cells per well of a 24-well plate, in 0.5 mL media per well on the day prior to experimentation. […] 1%. Drugs were co-administered with the stimulant, LPS. After a 6-hr incubation period with LPS ± drug (n = 3-4), the media from the experimental wells was harvested, the cells were removed by microcentrifugation, and the media assayed for TNF by ELISA. Drugs were screened at 10 µM for their ability to alter TNF production by cells stimulated with 1 µg/mL or 10 ng/mL LPS. Dexamethasone, an anti-inflammatory corticosteroid, served as the reference for inhibition of the LPS response.

TNF production [2] = experiment: Inhibition of TPA-stimulated TNF production in human epidermal keratinocytes (ELISA); type: cell-based; settings: for effect on TPA-stimulated levels of TNF (in words): human keratinocytes, TPA 10 ng/mL, drug 10 µM; for activity at 10 µM: Homo sapiens, epidermal keratinocytes, HEK cells, DRUG [10 µM], stimulation by TPA 10 ng/mL, read-out: TNF LEVEL % Control (LPS alone), Ave. ± S.D.
hairless mice = test system: hairless mice
Description: In addition to assessing the cytokine mRNA levels, the time course of the TPA-induced increase in skin thickness was also evaluated. This measurement was made with a micrometer using skin excised from euthanized mice. […] Further increases were typically seen 8 hours with this response being maintained through the 24 hour time point.
Three of the mice were euthanized at the 3 hour time point, and the treated sites were analyzed for TNF mRNA by RT-PCR. The fourth mouse was euthanized at a 24 hour time point, and the thickness of the treated areas of skin was measured using a micrometer.
At the 8 hours time point, the mice were euthanized, the treated areas of skin were excised, and the thickness of the skin was measured using a micrometer.

TNF production [3] = experiment: Inhibition of LPS-stimulated TNF production in the human monocytic cell line THP-1 (ELISA); type: cell-based; settings: Homo sapiens; for activity at 10 µM: read-out: TNF LEVEL % Control (LPS alone), Ave. ± S.D.
Description: Cultures were maintained by the addition of fresh growth medium to a T-75 or T-150 flask of cells in suspension, or by pelleting the cells and re-suspending them in the appropriate volume of fresh medium. Maximum cell density was 1.0 x 10^6 cells per mL and cultures were seeded at a minimum density of 0.2 x 10^6 cells per ml.
(§1) THP-1 cells were plated into 24-well plates at a density of 1.0 x 10^6 cells per mL in 0.5 mL medium per well. […] For measurement of IL-1α and IL-1β production, THP-1 cells were incubated with 500 ng/mL or 50 ng/mL LPS and incubated for 16 hours. Levels of secreted cytokine were measured in cell supernatants as for TNF. Cell-associated species were measured in cell lysates which were prepared by repetitive freeze-thawing of cells. For in vitro screening, drugs at 10 µM concentration were co-administered with LPS. […] Drug effects on cell viability were assessed by the MTT assay. […] Water-soluble drugs were dissolved in aqueous solutions such as RPMI or deionized H20. The final concentration of DMSO in the incubation medium was at or below 0.01% and that of ethanol was at or below 0. 1%. The effect on cell viability was evaluated by the MTT assay.

THP-1 cells = experiment: MTT assay of THP-1 cell viability; settings: highest dose tested
Description: as §1

[4] = Mus musculus, RAW cells, DRUG [10 µM], LPS at 10 ng/mL
[5] = 6 h, THP-1 cells, DRUG [10 µM], LPS 1 µg/mL

| SMILES | effectiveness against LPS-stimulated TNF production (in words) (TNF production [1]; RAW cells) | effect on TPA-stimulated levels of TNF (in words) (TNF production [2]) | activity at 10 µM (TNF production [1]; [4]) | activity at 10 µM (TNF production [2]) | activity at 10 µM (TNF production [3]; [5]) | other results |
| --- | --- | --- | --- | --- | --- | --- |
| CN(C)C(=O)C(CCN1CCC(O)(c2ccc(Cl)cc2)CC1)(c1ccccc1)c1ccccc1 [Loperamide, 4-(p-chlorophenyl)-4-hydroxy-N,N-dimethyl-α, α-diphenyl-1-piperidine butyramide HCL] | lowering of TNF levels | very effective |  |  |  | activity at 10 µM (TNF production [1]; Mus musculus): 62 ± 32%; inhibition at 10 µM (TNF production [1]; Mus musculus, RAW264.7, read-out: inhibition of LPS-stimulated TNF secretion): 62%; skin thickness (hairless mice; TPA + loperamide 7.5% solution topical, 8 hour, first experiment (vehicle 0.36 mm, TPA 0.56 mm)): 0.39 mm; skin thickness (hairless mice; TPA + loperamide topical, second experiment (vehicle 0.39 mm, TPA 0.89 mm), p<0.01 vs. TPA alone): 0.57 mm; thickness of skin treated with drug alone compared to vehicle-treated skin (hairless mice; loperamide 7.5% alone, no TPA): unchanged; inhibition of the TPA-induced swelling response (hairless mice; loperamide topical, second experiment): 64%; TPA-induced increase in skin thickness / swelling response (in words) (hairless mice; topical application, loperamide: 8 hour time point, first experiment): completely inhibit; activity at 10 µM (TNF production [3]; THP-1, 6 h): 42 ± 22%; inhibition at 10 µM (TNF production [3]; THP-1, read-out: inhibition of TNF production, LPS-stimulated THP-1 cells, drug 10 µM): ~42%; THP-1 cell viability (MTT assay) (THP-1 cells): did not impact |
| COC(=O)C1=C(C)NC(C)=C(C(=O)OC)C1c1ccccc1[N+](=O)[O-] [Nifedipine] |  |  | 79 ± 24% | 88 ± 40% | 119% |  |
| COCCOC(=O)C1=C(C)NC(C)=C(C(=O)OC(C)C)C1c1cccc([N+](=O)[O-])c1 (centres unmarked) [Nimodipine, nimodipine] |  |  | 37 ± 3% | 15 ± 3% | 81 ± 4% |  |
| CC(C)(C)NCC(O)c1cc(O)cc(O)c1 (centres unmarked) [Terbutaline, terbutaline] |  |  | 33 ± 9% | 36 ± 8% | 12 ± 4% |  |
| O=C1CCC(N2C(=O)c3ccccc3C2=O)C(=O)N1 (centres unmarked) [Thalidomide] |  |  | 67 ± 37% | ≥ 100% | 78 ± 9% |  |
| NC(N)=NC(=O)c1nc(Cl)c(N2CCCCCC2)nc1N [hexamethylamiloride] | tremendous decrease | several fold higher |  |  |  |  |
